What was measured:
[1] = test system: Italian ryegrass; experiment: Test E Italian ryegrass; assay type: in vivo, Lolium multiflorum; conditions: Preemergence
[2] = test system: wild oat; experiment: Test E wild oat; assay type: in vivo, Avena fatua; conditions: Preemergence
[3] = test system: itchgrass; experiment: Test D itchgrass; assay type: in vivo, Rottboellia exaltata; conditions: Preemergence, 0 to 100 scale
Outline: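 Scoring used a 0–100 visual injury scale, with 0 meaning no effect and 100 complete control, assessed 14–21 days after application alongside untreated pots. Preemergence treatments went onto sandy loam surfaces of separately potted seeds within a day of sowing.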

[4] = test system: bermuda-grass; experiment: Test D bermudagrass; assay type: in vivo, Cynodon dactylon; conditions: Preemergence, 0 to 100 scale
Outline: (§1)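 Values are visual plant-response ratings (0 no injury, 100 complete control) recorded 14 to 21 days after herbicide treatment, using a non-phytotoxic solvent mixture containing surfactant. Preemergence applications went to the surface of pots holding freshly sown seed in sandy loam.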

[5] = test system: wheat; experiment: Test B pre/postemergence wheat; assay type: in vivo, Triticum aestivum; conditions: for Plant response rating, Wheat: Rate 250 g/ha
Outline: (§2)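 Herbicidal effect was estimated by eye on a ten-point control scale after plants spent twelve to sixteen days in a greenhouse following soil or foliar treatment. Foliar sprays targeted plants at one to four leaves; all doses were formulated in a non-phytotoxic solvent with surfactant.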

[6] = test system: blackgrass; experiment: Test E blackgrass; assay type: in vivo, Alopecurus myosuroides; conditions: Preemergence
[7] = test system: winter wheat; experiment: Test E winter wheat; assay type: in vivo, Triticum aestivum; conditions: Postemergence
Outline: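 Visually scored herbicidal effect relative to untreated plants, taken ~21 to 28 days post-application; compound in solvent with surfactant; postemergence sprays at the 1- to 4-leaf stage.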

[8] = test system: crabgrass; experiment: Test B pre/postemergence crabgrass; assay type: in vivo, Digitaria sanguinalis
Outline: as §2

[9] = test system: Johnson grass; experiment: Test D Johnson grass; assay type: in vivo, Sorghum halepense; conditions: Preemergence, 0 to 100 scale
Outline: as §1

[10] = test system: smallflower flatsedge; experiment: Test B flood test smallflower flatsedge; assay type: in vivo, Cyperus difformis
Outline: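 Each value is a visual injury score relative to controls, with 10 meaning complete control and 0 no effect. Evaluation took place twelve to sixteen days after the 2-leaf-stage plants were treated and kept in the greenhouse.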

[11] = test system: green foxtail; experiment: Test E green foxtail; assay type: in vivo, Setaria viridis; conditions: Preemergence
[12] = test system: soybean; experiment: Test B pre/postemergence soybean; assay type: in vivo, Glycine max
Outline: as §2

[13] = test system: winter barley; experiment: Test E winter barley; assay type: in vivo, Hordeum vulgare; conditions: Preemergence
[14] = test system: wild oat; experiment: Test B pre/postemergence wild oat; assay type: in vivo, Avena fatua; conditions: for Plant response rating, Wild oats: Rate 250 g/ha
Outline: as §2

[15] = test system: winter wheat; experiment: Test E winter wheat; assay type: in vivo, Triticum aestivum; conditions: Preemergence
[16] = Rate 125 g/ha, 0 to 100 scale (0 no effect, 100 complete control)
[17] = Rate 500 g/ha, 0 to 100 scale where 0 is no effect and 100 is complete control
[18] = Rate 16 g/ha, 0 no injury, 100 complete control
[19] = Rate 32 g/ha, 0 no injury, 100 complete control
[20] = Rate 64 g/ha, 0 no injury, 100 complete control
[21] = Rate 125 g/ha, 0 no injury, 100 complete control
[22] = Postemergence, Rate 125 g/ha, scale of 0 to 10 where 0 is no effect and 10 is complete control
[23] = Preemergence, Rate 62 g/ha, scale 0 to 10 (0 no effect, 10 complete control)
[24] = Preemergence, Rate 125 g/ha, 0 is no effect, 10 is complete control
[25] = Preemergence, scale of 0 to 10 where 0 is no effect and 10 is complete control
[26] = Preemergence, Rate 500 g/ha, scale 0 to 10 (0 no effect, 10 complete control)
[27] = Rate 62 g/ha, Postemergence, scale of 0 to 10 where 0 is no effect and 10 is complete control
[28] = Postemergence, scale 0 to 10, 0 is no effect, 10 is complete control
[29] = Rate 500 g/ha, Postemergence, scale 0 to 10, 0 no effect, 10 complete control
[30] = Preemergence, Rate 125 g/ha, scale 0 to 10 (0 no effect, 10 complete control)
[31] = Preemergence, Rate 250 g/ha, scale of 0 to 10 where 0 is no effect and 10 is complete control

For `C=CCn1c(=O)on(C(=O)N(c2ccc(Cl)cc2)C(C)C)c1=O` [Compound 105], the “Plant response rating, I. Ryegrass” value [1, 16] was 30, the “Plant response rating, I. Ryegrass” value ([1]; Rate 250 g/ha, 0 to 100 scale) was 30 and the “Plant response rating, I. Ryegrass” value [1, 17] was 85. For the same compound, the “Plant response rating, Wild oat” value [2, 16] was 30, the “Plant response rating, Wild oat” value [2, 17] was 55 and the “Plant response rating, Itchgrass” value [3, 18] was 0. For the same compound, the “Plant response rating, Itchgrass” value [3, 19] was 0, the “Plant response rating, Itchgrass” value [3, 20] was 20 and the “Plant response rating, Itchgrass” value [3, 21] was 20. The “Plant response rating, Itchgrass” value ([3]; Rate 250 g/ha) was 85, the “Plant response rating, Itchgrass” value ([3]; Rate 500 g/ha) was 85 and the “Plant response rating, Bermudagrass” value [4, 18] was 85. For the same compound, the “Plant response rating, Bermudagrass” value [4, 19] was 98, the “Plant response rating, Bermudagrass” value [4, 20] was 98 and the “Plant response rating, Bermudagrass” value [4, 21] was 100. The “Plant response rating, Bermudagrass” value ([4]; Rate 250 g/ha) was 100, the “Plant response rating, Bermudagrass” value ([4]; Rate 500 g/ha) was 100 and the “Wheat plant response rating” value [5, 22] was 0. The “Wheat plant response rating” value [5, 23] was 0, the “Wheat plant response rating (0 to 10 scale)” value [5, 24] was 0 and the “Plant response rating, Wheat” value [5, 25] was 0. The “Wheat plant response rating” value [5, 26] was 2, the “Wheat plant response rating” value [5, 27] was 0 and the “Plant response rating, Wheat” value [5, 28] was 0. For the same compound, the “Wheat plant response rating” value [5, 29] was 2, the “Plant response rating, Blackgrass” value [6, 16] was 20 and the “Plant response rating, Blackgrass” value ([6]; Rate 250 g/ha, 0 to 100 scale) was 50. The “Plant response rating, Blackgrass” value [6, 17] was 50, the “Plant response rating, Wheat (winter)” value ([7]; Rate 125 g/ha, 0 to 100 scale) was 10 and the “Plant response rating, Wheat (winter)” value ([7]; Rate 250 g/ha, 0 to 100 scale (0 no effect, 100 complete control)) was 10. The “Plant response rating, Wheat (winter)” value ([7]; Rate 500 g/ha, 0 to 100 scale, 0 no effect, 100 complete control) was 20, the “Crabgrass plant response rating” value [8, 22] was 7 and the “Crabgrass plant response rating” value ([8]; Postemergence, Rate 250 g/ha, scale 0 to 10, 0 no effect, 10 complete control) was 7. For the same compound, the “Crabgrass plant response rating” value [8, 23] was 2, the “Plant response rating, Crabgrass” value [8, 30] was 8 and the “Plant response rating, Crabgrass” value [8, 31] was 8. The “Crabgrass plant response rating” value [8, 26] was 9, the “Crabgrass plant response rating” value [8, 29] was 9 and the “Plant response rating Johnsongrass” value [9, 18] was 0. The “Plant response rating Johnsongrass” value [9, 19] was 0, the “Plant response rating Johnsongrass” value [9, 20] was 0 and the “Plant response rating Johnsongrass” value [9, 21] was 20. The “Plant response rating Johnsongrass” value ([9]; Rate 250 g/ha) was 75, the “Plant response rating Johnsongrass” value ([9]; Rate 500 g/ha) was 90 and the “S. Flatsedge plant response rating” value ([10]; Postemergence (flood test species), Rate 125 g/ha, scale of 0 to 10 where 0 is no effect and 10 is complete control) was 0. The “S. Flatsedge plant response rating” value ([10]; Pre-emergence, Rate 1000 g/ha, scale 0 to 10 (0 no effect, 10 complete control)) was 0, the “S. Flatsedge plant response rating” value ([10]; Rate 62 g/ha, Postemergence section, flood test species, scale of 0 to 10 where 0 is no effect and 10 is complete control) was 0 and the “Plant response rating, S. Flatsedge” value ([10]; Rate 250 g/ha, Postemergence (flood test), scale 0 to 10, 0 is no effect, 10 is complete control) was 0. The “S. Flatsedge plant response rating” value ([10]; Rate 250 g/ha, headed Pre-emergence (flood test species), scale 0 to 10 (0 no effect, 10 complete control)) was 0, the “Plant response rating, S. Flatsedge” value ([10]; Rate 500 g/ha, headed Pre-emergence (flood test species), scale 0 to 10 (0 no effect, 10 complete control)) was 0 and the “S. Flatsedge plant response rating” value ([10]; Rate 500 g/ha, listed under Postemergence (flood test species), scale 0 to 10, 0 no effect, 10 complete control) was 0. The “S. Flatsedge plant response rating” value ([10]; Rate 2000 g/ha, Pre-emergence (as headed), scale 0 to 10) was 0, the “Plant response rating, Green foxtail” value [11, 16] was 55 and the “Plant response rating, Green foxtail” value ([11]; Rate 250 g/ha, 0 to 100 scale) was 90. For the same compound, the “Plant response rating, Green foxtail” value [11, 17] was 100, the “Soybean plant response rating” value [12, 22] was 1 and the “Soybean plant response rating” value [12, 23] was 0. For the same compound, the “Plant response rating, Soybean” value [12, 30] was 0, the “Plant response rating, Soybean” value [12, 31] was 0 and the “Soybean plant response rating” value [12, 26] was 0. For the same compound, the “Soybean plant response rating” value [12, 27] was 1, the “Plant response rating, Soybean” value ([12]; Rate 250 g/ha, Postemergence, scale 0 to 10, 0 is no effect, 10 is complete control) was 3 and the “Soybean plant response rating” value [12, 29] was 6. The “Plant response rating, Barley (winter)” value [13, 16] was 0, the “Plant response rating, Barley (winter)” value ([13]; Rate 250 g/ha, 0 to 100 scale) was 0 and the “Plant response rating, Barley (winter)” value [13, 17] was 10. The “Wild oats plant response rating” value [14, 22] was 0, the “Wild oats plant response rating” value [14, 23] was 2 and the “Wild oats plant response rating (0 to 10 scale)” value [14, 24] was 3. For the same compound, the “Plant response rating, Wild oats” value [14, 25] was 3, the “Wild oats plant response rating” value [14, 26] was 9 and the “Wild oats plant response rating” value [14, 27] was 0. For the same compound, the “Plant response rating, Wild oats” value [14, 28] was 2, the “Wild oats plant response rating” value [14, 29] was 4 and the “Plant response rating, Wheat (winter)” value [15, 16] was 10. The “Plant response rating, Wheat (winter)” value ([15]; Rate 250 g/ha, 0 to 100 scale) was 0 and the “Plant response rating, Wheat (winter)” value [15, 17] was 10.

From US6737383B1, “Herbicidal oxadiazolidines” (priority 1999, dated 2004)
